{"source": "ChEMBL document CHEMBL1212695", "about": "“An allosteric potentiator of M4 mAChR modulates hippocampal synaptic transmission” (Nat Chem Biol, 2008)", "key": {"[1]": {"target": "T1, Muscarinic acetylcholine receptor M4 (Rattus norvegicus) (UniProt P08485)", "T1 sequence (whole entry)": "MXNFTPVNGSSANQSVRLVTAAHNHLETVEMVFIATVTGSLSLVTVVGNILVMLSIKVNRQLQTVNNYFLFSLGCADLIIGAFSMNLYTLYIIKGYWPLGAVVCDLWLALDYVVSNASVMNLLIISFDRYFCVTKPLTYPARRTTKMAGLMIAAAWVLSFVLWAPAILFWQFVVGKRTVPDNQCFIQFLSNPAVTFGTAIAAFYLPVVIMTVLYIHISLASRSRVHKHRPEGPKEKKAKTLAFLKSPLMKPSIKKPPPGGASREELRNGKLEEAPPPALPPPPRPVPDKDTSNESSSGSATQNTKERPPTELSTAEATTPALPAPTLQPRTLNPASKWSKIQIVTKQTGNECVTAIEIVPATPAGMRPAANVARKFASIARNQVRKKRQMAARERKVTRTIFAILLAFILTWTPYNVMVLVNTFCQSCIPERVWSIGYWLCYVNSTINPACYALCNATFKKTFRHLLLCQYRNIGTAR", "assay": "Agonist activity at muscarinic M4 receptor in Sprague-Dawley rat hippocampal CA1 pyramidal neuron assessed as excitatory postsynaptic current amplitude at 5 uM by whole-cell electrophysiology relative to control", "format": "functional, tissue-based", "conditions": "Hippocampus"}, "[2]": {"system": "CHO", "assay": "Allosteric activation at P2Y1 receptor in CHO cells assessed as potentiation of acetylcholine-induced calcium mobilization at 10 uM after 1 hr by fluorescence assay", "format": "cell-based", "conditions": "Cricetulus griseus"}, "[3]": {"target": "T1, Muscarinic acetylcholine receptor M4 (Rattus norvegicus)", "assay": "Agonist activity at muscarinic M4 receptor in Sprague-Dawley rat hippocampal CA1 pyramidal neuron assessed as reduction of excitatory postsynaptic current at 1 uM by whole-cell electrophysiology relative to control", "format": "functional, tissue-based", "set-up": "scale not given: the % may be the effect or the level left", "conditions": "Hippocampus"}, "[4]": {"target": "Muscarinic acetylcholine receptor M3 (Rattus norvegicus) (UniProt P08483)", "sequence (P08483 whole entry, looked up)": "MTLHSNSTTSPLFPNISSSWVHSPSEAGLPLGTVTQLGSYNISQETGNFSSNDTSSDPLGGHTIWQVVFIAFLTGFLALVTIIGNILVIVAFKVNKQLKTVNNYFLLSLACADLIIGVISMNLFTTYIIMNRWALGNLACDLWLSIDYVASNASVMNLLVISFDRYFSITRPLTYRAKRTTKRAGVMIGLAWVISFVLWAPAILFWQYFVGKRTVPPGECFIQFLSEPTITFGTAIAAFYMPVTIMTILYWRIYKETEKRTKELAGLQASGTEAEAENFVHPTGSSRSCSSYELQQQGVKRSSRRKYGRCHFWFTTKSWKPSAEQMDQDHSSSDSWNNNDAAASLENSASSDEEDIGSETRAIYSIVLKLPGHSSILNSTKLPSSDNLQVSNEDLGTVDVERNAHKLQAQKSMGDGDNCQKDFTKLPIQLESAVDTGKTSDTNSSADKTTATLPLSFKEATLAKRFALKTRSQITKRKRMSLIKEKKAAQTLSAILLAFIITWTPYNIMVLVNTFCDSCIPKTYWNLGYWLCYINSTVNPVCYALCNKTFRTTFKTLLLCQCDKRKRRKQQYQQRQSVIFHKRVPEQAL", "assay": "Allosteric activation of rat recombinant muscarinic M3 receptor expressed in CHO cells assessed as potentiation of acetylcholine-induced calcium mobilization at 10 uM after 1 hr by fluorescence assay", "format": "functional, cell-based"}, "[5]": {"target": "Muscarinic acetylcholine receptor M3 (Rattus norvegicus) (UniProt P08483)", "assay": "Displacement of [3H]NMS from rat recombinant muscarinic M3 receptor expressed in CHO cells after 2 hrs by microplate scintillation counting", "format": "cell-based"}, "[6]": {"target": "T1, Muscarinic acetylcholine receptor M4 (Rattus norvegicus)", "assay": "Agonist activity at muscarinic M4 receptor in Sprague-Dawley rat hippocampal CA1 pyramidal neuron assessed as increase in carbachol-induced reduction in excitatory postsynaptic current at 5 uM by whole-cell electrophysiology relative to control", "format": "functional, tissue-based", "set-up": "scale not given: the % may be the effect or the level left", "conditions": "Hippocampus"}, "[7]": {"target": "T1, Muscarinic acetylcholine receptor M4 (Rattus norvegicus)", "assay": "Agonist activity at muscarinic M4 receptor in Sprague-Dawley rat hippocampal CA1 pyramidal neuron assessed as reduction of inhibitory postsynaptic current at 5 uM by whole-cell electrophysiology in presence of carbachol relative to control", "format": "functional, tissue-based", "conditions": "Hippocampus"}, "[8]": {"target": "T2, Muscarinic acetylcholine receptor M5 (Rattus norvegicus) (UniProt P08911)", "T2 sequence (whole entry)": "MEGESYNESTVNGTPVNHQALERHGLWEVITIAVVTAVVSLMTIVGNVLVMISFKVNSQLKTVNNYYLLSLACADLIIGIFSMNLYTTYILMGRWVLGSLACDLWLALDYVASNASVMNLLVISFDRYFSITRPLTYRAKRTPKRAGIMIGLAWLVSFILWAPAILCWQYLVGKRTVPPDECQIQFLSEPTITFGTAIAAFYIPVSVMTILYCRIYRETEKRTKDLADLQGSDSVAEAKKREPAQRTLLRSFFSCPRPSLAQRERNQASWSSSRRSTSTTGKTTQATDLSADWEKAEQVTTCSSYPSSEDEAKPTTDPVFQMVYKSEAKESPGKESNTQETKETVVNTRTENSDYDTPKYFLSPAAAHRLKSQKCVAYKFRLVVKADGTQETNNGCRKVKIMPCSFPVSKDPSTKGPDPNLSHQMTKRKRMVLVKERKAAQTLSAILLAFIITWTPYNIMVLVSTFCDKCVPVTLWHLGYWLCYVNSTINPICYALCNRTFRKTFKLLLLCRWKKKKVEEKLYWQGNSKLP", "assay": "Antagonist activity at rat recombinant muscarinic M5 receptor expressed in CHO cells assessed as calcium mobilization at 10 uM after 1 hr by fluorescence assay", "format": "functional, cell-based"}, "[9]": {"target": "T2, Muscarinic acetylcholine receptor M5 (Rattus norvegicus)", "assay": "Displacement of [3H]NMS from rat recombinant muscarinic M5 receptor expressed in CHO cells after 2 hrs by microplate scintillation counting", "format": "cell-based"}, "[10]": {"target": "T1, Muscarinic acetylcholine receptor M4 (Rattus norvegicus)", "assay": "Displacement of [3H]NMS from rat recombinant muscarinic M4 receptor expressed in CHO cells up to 30 uM after 2 hrs by microplate scintillation counting", "format": "cell-based"}}, "note": "Calls of active or inactive are those of the source. No cut-off for these calls is given here.", "data": [{"smiles": "Cc1cc(C)c2c(N)c(C(=O)NCc3ccc(Cl)cc3)sc2n1", "values": [{"measurement": "Activity", "setting": "[1]", "value": 108, "unit": "%"}, {"measurement": "Activity", "setting": "[2]", "value": "inactive"}, {"measurement": "Activity", "setting": "[3]", "value": 60.5, "unit": "%"}, {"measurement": "Activity", "setting": "[4]", "value": "inactive"}, {"measurement": "Activity", "setting": "[5]", "value": "inactive"}, {"measurement": "Activity", "setting": "[6]", "value": 36.9, "unit": "%"}, {"measurement": "inhibition", "setting": "[7]", "value": 61.7, "unit": "%"}, {"measurement": "Activity", "setting": "[8]", "value": "inactive"}, {"measurement": "Activity", "setting": "[9]", "value": "inactive"}, {"measurement": "Activity", "setting": "[10]", "value": "inactive"}]}]}
